Patent US20250163038A1, “CBL-B MODULATORS AND USES THEREOF” (Nimbus Clio, Inc., priority 2021, published 2025)

Key:
[1] = target: Recombinant human Cbl-b (aa 36-427) (Homo sapiens, UniProt Q13191); assay: Cbl-b Biochemical Assay (TR-FRET); conditions: read-out: TR-FRET hCbl-b IC50
[2] = target: T1, Recombinant human c-Cbl (aa 47-435) (Homo sapiens, UniProt P22681); assay: c-Cbl Biochemical Assay (TR-FRET); conditions: hc-Cbl Biochemical Assay (TR-FRET); read-out: TR-FRET hcCbl IC50
T1 sequence (P22681 47-435): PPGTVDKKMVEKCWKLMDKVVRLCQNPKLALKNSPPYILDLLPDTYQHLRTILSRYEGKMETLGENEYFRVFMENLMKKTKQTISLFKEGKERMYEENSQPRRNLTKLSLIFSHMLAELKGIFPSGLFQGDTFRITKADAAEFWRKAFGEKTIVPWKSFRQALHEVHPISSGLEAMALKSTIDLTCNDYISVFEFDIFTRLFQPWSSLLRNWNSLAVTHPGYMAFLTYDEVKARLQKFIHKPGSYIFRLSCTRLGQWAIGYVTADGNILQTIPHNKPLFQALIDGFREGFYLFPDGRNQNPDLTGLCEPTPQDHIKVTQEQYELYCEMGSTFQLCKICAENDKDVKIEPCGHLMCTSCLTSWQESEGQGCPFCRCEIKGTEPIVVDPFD

Chain of Recombinant human Cbl-b (aa 36-427) (Q13191 36-427): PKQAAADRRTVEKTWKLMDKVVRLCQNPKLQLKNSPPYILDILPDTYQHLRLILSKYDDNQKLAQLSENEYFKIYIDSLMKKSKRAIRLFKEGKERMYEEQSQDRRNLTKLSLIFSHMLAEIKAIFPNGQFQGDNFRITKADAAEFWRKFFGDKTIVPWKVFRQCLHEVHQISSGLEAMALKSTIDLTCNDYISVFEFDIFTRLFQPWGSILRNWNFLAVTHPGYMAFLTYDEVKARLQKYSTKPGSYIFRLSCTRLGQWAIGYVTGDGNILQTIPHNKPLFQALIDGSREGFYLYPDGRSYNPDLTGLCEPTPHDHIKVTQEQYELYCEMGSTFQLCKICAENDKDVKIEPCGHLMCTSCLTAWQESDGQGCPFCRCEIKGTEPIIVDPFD

Compound | IC50 [1] [µM] | IC50 [2] [µM]
Cn1cnnc1CC1(c2cccc(-c3cc(C(F)(F)F)c[nH]c3=O)c2)COC1 [ABO-1, 3-(3-(3-((4-Methyl-4H-1,2,4-triazol-3-yl)methyl)oxetan-3-yl)phenyl)-5-(trifluoromethyl)pyridin-2(1H)-one] | 0.2 to 1 | 10 to 50
Cn1cnnc1CC1(c2cccc(-c3nc4cc(C(=O)N5CC[C@H](O)C5)cc(C(F)(F)F)c4[nH]3)c2)COC1 [ABR-2, (S)-(3-Hydroxypyrrolidin-1-yl)(2-(3-(3-((4-methyl-4H-1,2,4-triazol-3-yl)methyl)oxetan-3-yl)phenyl)-7-(trifluoromethyl)-1H-benzo[d]imidazol-5-yl)methanone] | < 0.2 | 1 to 10
Cn1cnnc1CC1(c2cccc(-c3nc4cc(C(=O)N5CC[C@@H](O)C5)cc(C(F)(F)F)c4[nH]3)c2)COC1 [ABS-2, (R)-(3-Hydroxypyrrolidin-1-yl)(2-(3-(3-((4-methyl-4H-1,2,4-triazol-3-yl)methyl)oxetan-3-yl)phenyl)-7-(trifluoromethyl)-1H-benzo[d]imidazol-5-yl)methanone] | 10 to 50 | 10 to 50
Cn1cnnc1CC1(c2cccc(-c3nc4cccc(C(F)(F)F)c4s3)c2)COC1 [ABT-2, 2-(3-(3-((4-Methyl-4H-1,2,4-triazol-3-yl)methyl)oxetan-3-yl)phenyl)-7-(trifluoromethyl)benzo[d]thiazole] | 1 to 10 | 10 to 50
Cn1cnnc1-c1ccccc1-c1cccc(-c2nc3cccc(C(F)(F)F)n3n2)c1 [ABU-2, 2-(2′-(4-Methyl-4H-1,2,4-triazol-3-yl)-[1,1′-biphenyl]-3-yl)-5-(trifluoromethyl)-[1,2,4]triazolo[1,5-a]pyridine] | 10 to 50 | 10 to 50
Cn1cnnc1-c1ccccc1-c1cccc(-c2cc(C(F)(F)F)c[nH]c2=O)c1 [ABV-1, 3-(2′-(4-Methyl-4H-1,2,4-triazol-3-yl)-[1,1′-biphenyl]-3-yl)-5-(trifluoromethyl)pyridin-2(1H)-one] | 10 to 50 | 10 to 50
Cn1cnnc1CC1(c2cccc(-c3cc(C4CC4)c[nH]c3=O)c2)COC1 [ABX-3, 5-Cyclopropyl-3-(3-(3-((4-methyl-4H-1,2,4-triazol-3-yl)methyl)oxetan-3-yl)phenyl)pyridin-2(1H)-one] | 10 to 50 | 10 to 50
C[C@H](Cc1nncn1C)c1cccc(-c2nc3cccc(C(F)(F)F)n3n2)c1 [ACA-2, (R)-2-(3-(1-(4-methyl-4H-1,2,4-triazol-3-yl)propan-2-yl)phenyl)-5-(trifluoromethyl)-[1,2,4]triazolo[1,5-a]pyridine] | 10 to 50 | 10 to 50
Cn1cnnc1CC1(c2cccc(-c3nc4cc(CN5CC[C@@H](O)C5)cc(C(F)(F)F)c4[nH]3)c2)COC1 [ACB-1, (R)-1-((2-(3-(3-((4-Methyl-4H-1,2,4-triazol-3-yl)methyl)oxetan-3-yl)phenyl)-7-(trifluoromethyl)-1H-benzo[d]imidazol-5-yl)methyl)pyrrolidin-3-ol] | 0.2 to 1 | 10 to 50
Cn1cnnc1CC1(c2cccc(-c3nc4cc(CNc5nccn5C)cc(C(F)(F)F)c4[nH]3)c2)COC1 [ACC-1, 1-Methyl-N-((2-(3-(3-((4-methyl-4H-1,2,4-triazol-3-yl)methyl)oxetan-3-yl)phenyl)-7-(trifluoromethyl)-1H-benzo[d]imidazol-5-yl)methyl)-1H-imidazol-2-amine] | 0.2 to 1 | 1 to 10
Cn1cnnc1CC1(c2cccc(-c3cc(C(F)(F)F)cn(CCO)c3=O)c2)COC1 [ACG-3, 1-(2-Hydroxyethyl)-3-(3-(3-((4-methyl-4H-1,2,4-triazol-3-yl)methyl)oxetan-3-yl)phenyl)-5-(trifluoromethyl)pyridin-2(1H)-one] | 0.2 to 1 | 10 to 50
Cn1cnnc1CC1(c2cccc(-c3nc4cc(OCCN5CCCC5)cc(C(F)(F)F)c4[nH]3)c2)COC1 [ACJ-5, 2-(3-(3-((4-Methyl-4H-1,2,4-triazol-3-yl)methyl)oxetan-3-yl)phenyl)-5-(2-(pyrrolidin-1-yl)ethoxy)-7-(trifluoromethyl)-1H-benzo[d]imidazole] | 10 to 50 | 10 to 50
Cn1cnnc1CC1(c2cccc(-c3nc4cc(CN5CC[C@H](O)C5)cc(C(F)(F)F)c4[nH]3)c2)COC1 [ACL-1, (S)-1-((2-(3-(3-((4-Methyl-4H-1,2,4-triazol-3-yl)methyl)oxetan-3-yl)phenyl)-7-(trifluoromethyl)-1H-benzo[d]imidazol-5-yl)methyl)pyrrolidin-3-ol] | 0.2 to 1 | 1 to 10
Cn1cnnc1CC1(c2cccc(-c3nc4cccc(C(F)(F)F)c4o3)c2)COC1 [ACO-1, 2-(3-(3-((4-Methyl-4H-1,2,4-triazol-3-yl)methyl)oxetan-3-yl)phenyl)-7-(trifluoromethyl)benzo[d]oxazole] | 0.2 to 1 | 10 to 50
CCNc1cc(-c2c(-c3nncn3C)cnn2C)cc(-c2cc(C(F)(F)F)c[nH]c2=O)n1 [ACQ-3, 6-(Ethylamino)-4-(1-methyl-4-(4-methyl-4H-1,2,4-triazol-3-yl)-1H-pyrazol-5-yl)-5′-(trifluoromethyl)-[2,3′-bipyridin]-2′(1′H)-one] | 0.2 to 1 | 1 to 10
Cn1cnnc1-c1cnn(C)c1-c1cc(Cl)nc(-c2cc(C(F)(F)F)c[nH]c2=O)c1 [ACR-3, 6-Chloro-4-(1-methyl-4-(4-methyl-4H-1,2,4-triazol-3-yl)-1H-pyrazol-5-yl)-5′-(trifluoromethyl)-[2,3′-bipyridin]-2′(1′H)-one] | 10 to 50 | 10 to 50
CCNc1cc(-c2c(-c3nncn3C)cnn2C)cc(-c2nc3cccc(C(F)(F)F)c3s2)n1 [ACU-2, N-Ethyl-4-[2-methyl-4-(4-methyl-1,2,4-triazol-3-yl)-pyrazol-3-yl]-6-[7-(trifluoromethyl)-1,3-benzothiazol-2-yl]-pyridin-2-amine] | 10 to 50 | 10 to 50
COC(=O)c1cc(C(F)(F)F)c2oc(-c3cccc([C@]4(c5nncn5C)C[C@@H](C)C4)c3)nc2c1 [ADC-3, Methyl 2-(3-((1s,3s)-3-methyl-1-(4-methyl-4H-1,2,4-triazol-3-yl)cyclobutyl)phenyl)-7-(trifluoromethyl)benzo[d]oxazole-5-carboxylate] | 1 to 10 | 10 to 50
Cn1cnnc1[C@]1(c2cccc(-c3nc4cc(CO)cc(C(F)(F)F)c4o3)c2)C[C@H](C)C1 [ADD-1, (2-(3-((1s,3s)-3-Methyl-1-(4-methyl-4H-1,2,4-triazol-3-yl)cyclobutyl)phenyl)-7-(trifluoromethyl)benzo[d]oxazol-5-yl)methanol] | 0.2 to 1 | 1 to 10
COC(=O)c1ccc2oc(-c3cccc(-c4ccc(Cl)cc4-c4nncn4C)c3)nc2c1 [ADJ-2, Methyl 2-[4′-chloro-2′-(4-methyl-1,2,4-triazol-3-yl)-[1,1′-biphenyl]-3-yl]-1,3-benzoxazole-5-carboxylate] | 1 to 10 | 1 to 10
Cn1cnnc1-c1cc(F)ccc1-c1cc(Cl)nc(-c2nc3cc(CO)cc(C(F)(F)F)c3[nH]2)c1 [ADX-3, (2-{6-Chloro-4-[4-fluoro-2-(4-methyl-1,2,4-triazol-3-yl)phenyl]pyridin-2-yl}-7-(trifluoromethyl)-1H-1,3-benzodiazol-5-yl)methanol] | 10 to 50 | 10 to 50
COC(=O)c1cc(OC)c2oc(-c3cccc([C@]4(c5nncn5C)C[C@@H](C)C4)c3)nc2c1 [AEA-1, Methyl 7-methoxy-2-{3-[(1r,3s)-3-methyl-1-(4-methyl-1,2,4-triazol-3-yl)cyclobutyl]phenyl}-1,3-benzoxazole-5-carboxylate] | 10 to 50 | 10 to 50
COc1cc(CO)cc2nc(-c3cccc([C@]4(c5nncn5C)C[C@@H](C)C4)c3)oc12 [AEB-1, (7-Methoxy-2-{3-[(1r,3s)-3-methyl-1-(4-methyl-1,2,4-triazol-3-yl)cyclobutyl]phenyl}-1,3-benzoxazol-5-yl)methanol] | 1 to 10 | 1 to 10
COC(=O)c1ccc2[nH]c(-c3cc(-c4ccc(F)cc4-c4nncn4C)cc(C4CC4)n3)nc2c1 [AED-3, Methyl 2-(6-cyclopropyl-4-(4-fluoro-2-(4-methyl-4H-1,2,4-triazol-3-yl)phenyl)pyridin-2-yl)-1H-benzo[d]imidazole-5-carboxylate] | 10 to 50 | 10 to 50
Cn1cnnc1-c1cc(F)ccc1-c1cc(-c2nc3cc(CO)ccc3[nH]2)nc(C2CC2)c1 [AEE-1, (2-(6-Cyclopropyl-4-(4-fluoro-2-(4-methyl-4H-1,2,4-triazol-3-yl)phenyl)pyridin-2-yl)-1H-benzo[d]imidazol-5-yl)methanol] | 1 to 10 | 1 to 10
CCNc1cc(-c2ccc(F)cc2-c2nncn2C)cc(-c2nc3cccc(C(F)(F)F)c3o2)n1 [AEJ-4, N-Ethyl-4-[4-fluoro-2-(4-methyl-1,2,4-triazol-3-yl)phenyl]-6-[7-(trifluoromethyl)-1,3-benzoxazol-2-yl]pyridin-2-amine] | 0.2 to 1 | 1 to 10
Cn1cnnc1-c1cc(F)ccc1-c1cccc(-c2nc3cc(CO)ccc3o2)c1 [AJ-3, (2-(4′-Fluoro-2′-(4-methyl-4H-1,2,4-triazol-3-yl)-[1,1′-biphenyl]-3-yl)benzo[d]oxazol-5-yl)methanol] | 10 to 50 | 10 to 50
Cn1cnnc1-c1cc(F)ccc1-c1cccc(-c2nc3ccccc3o2)c1 [AR-2, 2-(4′-Fluoro-2′-(4-methyl-4H-1,2,4-triazol-3-yl)-[1,1′-biphenyl]-3-yl)benzo[d]oxazole] | 10 to 50 | 10 to 50
